Source: a melting point compilation (Tetko et al.; mined from patent text by program, amines drawn as free bases though some values may be those of a salt)

Molecule `CCCc1c(OCCCCCOc2coc(CO)cc2=O)ccc(C(C)=O)c1O` has a melting point of 94 to 95 °C.
For `CN(Cc1ccc(NC(=O)C2=Cc3cc(OCc4ccccc4Cl)ccc3S(=O)(=O)CC2)cc1)C1CCOCC1`, the melting point was 205 to 207 °C.
`Nc1ccc(P(=O)(O)O)cc1` gave a melting point of 257 to 260 °C.
With `CCOCCn1c(C2CCN(CCc3ccc(C(C)(C)C)cc3)CC2)nc2ccccc21` the melting point was 138 to 140 °C.
Work on `O=C(OC[C@@H](O)[C@@H]1CC(c2ccc(-c3ccc(N4C[C@H](Cn5ccnn5)OC4=O)cc3F)cn2)=NO1)c1cccnc1` yielded a melting point of 210 °C.
`COc1ccc(S(=O)(=O)NCC2CCN(C[C@H]3COc4ccc(Cl)cc4O3)CC2)cc1OC` gave a melting point of 99 to 101 °C.
Work on `CC(C)(C)NC(=O)N1CC(Oc2cccc(C(F)(F)F)c2)C1` yielded a melting point of 105 to 107 °C.
Molecule `CCC(C)C(C)CNc1cccc(-c2ccnc3c(C(=O)c4cccs4)cnn23)c1` (stereo unspecified) has a melting point of 84 to 86 °C.
With `CSc1cc(SC)c(SC)cc1NC(C)=O` the melting point was 87 to 89 °C.
`O/N=C(/CCN1CCN(c2ncccn2)CC1)c1ccccc1` showed a melting point of 175 to 177 °C.
Molecule `C#CCn1c(=O)n(C)c2ccccc21` has a melting point of 110 to 112 °C.
`Nc1cc(O)ccc1F` gave a melting point of 137 to 139 °C.
For `CN1CC[C@@H]2CC(=O)c3cc(F)ccc3[C@H]2C1` (relative stereo), the melting point was over 250 °C.
Molecule `COC(=O)C(=O)c1ccc(N(C=O)CCOc2ccc3ccccc3c2)cc1` has a melting point of 103 to 104 °C.
In the case of `Cc1nc(C(N)=O)c2n1-c1ccc(Cl)cc1C(c1ccccc1)=NC2`, the melting point is reported as 335 to 340 °C.
`O=C1c2ccccc2CN1C1CCN(CCCCC2(C(=O)NCC(F)(F)F)c3ccccc3-c3ccccc32)CC1` showed a melting point of 143 to 146 °C.
In the case of `CCCOC(=O)C1=C(C)NC(C)=C(C(=O)OCC)C1c1ccccc1C#N` (stereo unspecified), the melting point is reported as 156 °C.
With `CC(C)(C)NCC(O)COc1cccc2nc[nH]c12` (stereo unspecified) the melting point was 203 to 205 °C.
Work on `N=C(N)NCCCc1cc[nH]n1` yielded a melting point of 210 °C.
For `C=C(COCC(=C)C(=O)O)C(=O)O`, the melting point was 177 °C.
Work on `CCCCOc1nsnc1OC[C@@H]1CCCN1` yielded a melting point of 99 to 100 °C.
With `Nc1cc(Cl)ccc1C(=O)NCCCc1cccnc1` the melting point was 145 to 147 °C.
Work on `Fc1ccc2c(c1)nc(CC(F)(F)F)n2C1CCNCC1` yielded a melting point of 135 °C.
Molecule `O=C(C1CC=CCC1)C1CCC2C(C=CC3=CCCc4c3n2c2ccncc42)C1` (stereo unspecified) has a melting point of 156 to 158 °C.
With `CC(=O)SCC(CC(=O)c1ccc(Br)cc1)C(=O)OCc1ccccc1` (stereo unspecified) the melting point was 79 to 80 °C.
Work on `CCOc1cc(C(C)C)c2c(c1)S(=O)(=O)N(CSc1ccccc1)C2=O` yielded a melting point of 112 °C.
Work on `CC(=O)Nc1ccc(SCc2nc3ccccc3s2)cc1` yielded a melting point of 147 to 149 °C.
Work on `O=C(CBr)Nc1cccc(O)c1` yielded a melting point of 167 to 170 °C.
For `C[C@H](CO)Nc1nc(SCc2ccccc2)nc2[nH]c(=O)[nH]c12`, the melting point was 284 °C.
For `CNC(=O)N1CC(Oc2ccc(Cl)cc2)C1`, the melting point was 144 to 145 °C.
Molecule `COC(=O)C1=C(C)NC(C)=C(c2nc(C)no2)C1c1cccc(N)c1` (stereo unspecified) has a melting point of 248 to 249 °C.
For `CCOC(=O)c1c(O)c2cnc(SC)nc2n(C)c1=O`, the melting point was 166 to 168 °C.
For `CNC(=O)C(Cc1ccc(OC)cc1)NC(=O)C(C)(CC(C)C)c1ccc(OC)cc1SCc1ccc(OC)cc1` (stereo unspecified), the melting point was 150 to 158 °C.
With `CCOC(=O)c1c(-c2ccccc2)n(-c2ccc(OC)cc2)c2ccccc2c1=O` the melting point was 246 to 247 °C.
For `CCSC1=CCC2C3CCC4=CC(=O)C=CC4(C)C3(F)C(OC(C)=O)CC12C` (stereo unspecified), the melting point was 211 to 215 °C.
In the case of `O=C(O)[C@@H]1CC2(CN1C(=O)OCc1ccccc1)OCCO2`, the melting point is reported as 179 to 180 °C.
Molecule `O=C(O)CS(=O)(=O)c1ccc2c(-c3ccc(Cl)cc3)noc2c1` has a melting point of 201 to 203 °C.
Molecule `COc1ccc(C[C@@H](NC(=O)CCCc2ccccc2)[C@@H](O)c2ccc(F)cc2)cc1` (racemic) has a melting point of 130 to 131 °C.
With `CN1CCCC1c1ccc(CCNC(=O)c2ccc(Br)cc2)cc1` (stereo unspecified) the melting point was 133 to 134 °C.
For `CCC(Oc1ccc(Cl)c(C)c1)C(=O)NCc1ccccc1Cl` (stereo unspecified), the melting point was 107 to 109 °C.
`CONCc1nc2c(N)nc3cc(-c4cccnc4)cnc3c2n1CC(C)(C)O` showed a melting point of 195 to 197 °C.
